Assays:
Swiss Webster mice [1] = experiment: Elevated plus maze; format: in vivo; conditions: EPM; fenethylline 20 mg/kg
GABAA – Site 1 = experiment: Radioligand displacement; format: binding; conditions: 10 μM fenethylline, average of two replicates
Adenosine A1 = Adenosine A1 (Homo sapiens, UniProt P30542); experiment: Radioligand displacement; format: binding; conditions: read-out: Inhib. (%)
Muscarinic M3 = Muscarinic M3 (Homo sapiens, UniProt P20309); experiment: Radioligand displacement; format: binding; conditions: read-out: Inhib. (%)
Adrenergic β1 = Adrenergic β1 (Homo sapiens, UniProt P08588); experiment: Radioligand displacement; format: binding; conditions: read-out: Inhib. (%)
Cannabinoid CB1 = Cannabinoid CB1 (Homo sapiens, UniProt P21554); experiment: Radioligand displacement; format: binding; conditions: read-out: Inhib. (%)
GABAA – Site 2 = experiment: Radioligand displacement; format: binding; conditions: 10 μM fenethylline, average of two replicates
Norepi. Transporter = Norepi. Transporter (Homo sapiens, UniProt P23975); experiment: Radioligand displacement; format: binding; conditions: read-out: Inhib. (%)
Nicotinic Ach α1 = Nicotinic Ach α1 (Homo sapiens, UniProt P02708+P07510+Q07001); experiment: Radioligand displacement; format: binding; conditions: read-out: Inhib. (%)
Swiss Webster mice [2] = experiment: Open field hyperlocomotor activity assay; format: in vivo
Swiss Webster mice [3] = experiment: Conditioned place preference; format: in vivo; conditions: training with fenethylline 20 mg/kg
Adrenergic β2 = Adrenergic β2 (Homo sapiens, UniProt P07550); experiment: Radioligand displacement; format: binding; conditions: read-out: Inhib. (%)
Adrenergic α1A = experiment: Radioligand displacement; format: binding; conditions: 10 μM fenethylline, average of two replicates
suite of 31 CNS targets = experiment: Binding across a suite of 31 CNS targets; conditions: 10 μM
Adrenergic α2A = Adrenergic α2A (Homo sapiens, UniProt P08913); experiment: Radioligand displacement; format: binding; conditions: read-out: Inhib. (%)
Muscarinic M2 = Muscarinic M2 (Homo sapiens, UniProt P08172); experiment: Radioligand displacement; format: binding; conditions: read-out: Inhib. (%)
L-Type Ca Channel = experiment: Radioligand displacement; format: binding; conditions: 10 μM fenethylline, average of two replicates
Nicotinic Ach = experiment: Radioligand displacement; format: binding; conditions: 10 μM fenethylline, average of two replicates
Rolipram = experiment: Radioligand displacement; format: binding; conditions: 10 μM fenethylline, average of two replicates
Prostanoid EP4 = Prostanoid EP4 (Homo sapiens, UniProt P35408); experiment: Radioligand displacement; format: binding; conditions: read-out: Inhib. (%)
Dopamine D2S = Dopamine D2S (Homo sapiens, UniProt P14416); experiment: Radioligand displacement; format: binding; conditions: read-out: Inhib. (%)
AdenosineA2A = AdenosineA2A (Homo sapiens, UniProt P29274); experiment: Radioligand displacement; format: binding; conditions: read-out: Inhib. (%)
Glutamate – NMDA = experiment: Radioligand displacement; format: binding; conditions: 10 μM fenethylline, average of two replicates
Sigma σ1 = Sigma σ1 (Homo sapiens, UniProt Q99720); experiment: Radioligand displacement; format: binding; conditions: read-out: Inhib. (%)
Phorbol Ester = experiment: Radioligand displacement; format: binding; conditions: 10 μM fenethylline, average of two replicates
Adrenergic α1B = experiment: Radioligand displacement; format: binding; conditions: 10 μM fenethylline, average of two replicates
[4] = format: in vivo, Swiss Webster mice; conditions: fenethylline 50 mg/kg vs amphetamine 5 mg/kg

Cannabinoid CB1, sequence (P21554 whole entry): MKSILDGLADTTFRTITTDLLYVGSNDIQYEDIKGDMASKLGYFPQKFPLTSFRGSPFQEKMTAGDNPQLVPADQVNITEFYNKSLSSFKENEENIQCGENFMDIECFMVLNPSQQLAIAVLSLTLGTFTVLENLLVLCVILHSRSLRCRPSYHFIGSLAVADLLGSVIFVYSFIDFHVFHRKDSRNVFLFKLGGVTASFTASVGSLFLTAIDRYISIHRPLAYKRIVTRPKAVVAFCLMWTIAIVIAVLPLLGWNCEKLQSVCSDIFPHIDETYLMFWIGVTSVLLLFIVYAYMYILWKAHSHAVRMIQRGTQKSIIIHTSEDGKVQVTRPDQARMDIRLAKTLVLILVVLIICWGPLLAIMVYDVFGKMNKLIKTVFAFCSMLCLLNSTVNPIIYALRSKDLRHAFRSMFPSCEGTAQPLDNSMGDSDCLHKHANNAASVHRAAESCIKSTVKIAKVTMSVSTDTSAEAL
Dopamine D2S, sequence (P14416 1-414 isoform P14416-2): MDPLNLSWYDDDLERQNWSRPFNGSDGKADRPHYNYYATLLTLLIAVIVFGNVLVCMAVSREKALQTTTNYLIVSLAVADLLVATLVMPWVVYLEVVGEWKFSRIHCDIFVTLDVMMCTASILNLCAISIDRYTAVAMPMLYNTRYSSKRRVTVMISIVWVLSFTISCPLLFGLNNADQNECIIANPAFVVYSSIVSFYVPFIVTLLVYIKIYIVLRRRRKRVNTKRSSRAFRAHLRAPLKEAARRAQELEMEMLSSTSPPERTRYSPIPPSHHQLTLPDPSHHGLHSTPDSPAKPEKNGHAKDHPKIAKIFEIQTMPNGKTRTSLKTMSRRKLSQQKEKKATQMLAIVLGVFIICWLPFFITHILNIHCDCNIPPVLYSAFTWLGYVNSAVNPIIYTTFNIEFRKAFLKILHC
Adenosine A1, sequence (P30542 whole entry): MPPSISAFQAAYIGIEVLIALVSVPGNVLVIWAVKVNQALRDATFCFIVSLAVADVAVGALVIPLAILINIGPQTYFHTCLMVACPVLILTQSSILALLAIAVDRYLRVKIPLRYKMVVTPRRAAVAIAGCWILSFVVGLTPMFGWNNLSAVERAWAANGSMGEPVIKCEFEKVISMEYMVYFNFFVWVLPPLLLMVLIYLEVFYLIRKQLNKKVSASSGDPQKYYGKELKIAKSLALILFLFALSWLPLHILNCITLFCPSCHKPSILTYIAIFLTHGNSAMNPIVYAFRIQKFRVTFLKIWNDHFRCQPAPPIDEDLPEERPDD
AdenosineA2A, sequence (P29274 whole entry): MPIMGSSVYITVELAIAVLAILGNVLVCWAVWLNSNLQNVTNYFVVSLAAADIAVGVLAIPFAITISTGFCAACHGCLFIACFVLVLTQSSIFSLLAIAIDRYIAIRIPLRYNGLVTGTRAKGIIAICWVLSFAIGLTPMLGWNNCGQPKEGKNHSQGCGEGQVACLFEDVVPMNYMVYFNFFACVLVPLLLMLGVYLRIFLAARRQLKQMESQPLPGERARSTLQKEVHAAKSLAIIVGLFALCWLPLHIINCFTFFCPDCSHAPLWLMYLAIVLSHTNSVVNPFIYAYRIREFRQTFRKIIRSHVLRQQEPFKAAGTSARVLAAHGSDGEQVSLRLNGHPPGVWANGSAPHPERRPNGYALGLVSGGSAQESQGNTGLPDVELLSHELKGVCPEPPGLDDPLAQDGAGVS
Muscarinic M2, sequence (P08172 whole entry): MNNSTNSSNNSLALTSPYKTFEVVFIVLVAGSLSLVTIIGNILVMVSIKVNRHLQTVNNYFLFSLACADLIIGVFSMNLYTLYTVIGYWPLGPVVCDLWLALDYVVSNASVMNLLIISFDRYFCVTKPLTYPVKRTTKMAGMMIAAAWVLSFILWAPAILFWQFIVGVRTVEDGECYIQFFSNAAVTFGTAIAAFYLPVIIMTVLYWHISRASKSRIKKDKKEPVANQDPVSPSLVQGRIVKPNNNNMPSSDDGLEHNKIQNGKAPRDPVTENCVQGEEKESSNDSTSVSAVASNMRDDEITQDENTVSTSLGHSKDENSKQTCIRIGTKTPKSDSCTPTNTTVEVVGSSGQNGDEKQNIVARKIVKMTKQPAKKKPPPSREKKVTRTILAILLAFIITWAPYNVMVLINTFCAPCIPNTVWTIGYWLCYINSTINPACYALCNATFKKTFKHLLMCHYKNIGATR
Muscarinic M3, sequence (P20309 whole entry): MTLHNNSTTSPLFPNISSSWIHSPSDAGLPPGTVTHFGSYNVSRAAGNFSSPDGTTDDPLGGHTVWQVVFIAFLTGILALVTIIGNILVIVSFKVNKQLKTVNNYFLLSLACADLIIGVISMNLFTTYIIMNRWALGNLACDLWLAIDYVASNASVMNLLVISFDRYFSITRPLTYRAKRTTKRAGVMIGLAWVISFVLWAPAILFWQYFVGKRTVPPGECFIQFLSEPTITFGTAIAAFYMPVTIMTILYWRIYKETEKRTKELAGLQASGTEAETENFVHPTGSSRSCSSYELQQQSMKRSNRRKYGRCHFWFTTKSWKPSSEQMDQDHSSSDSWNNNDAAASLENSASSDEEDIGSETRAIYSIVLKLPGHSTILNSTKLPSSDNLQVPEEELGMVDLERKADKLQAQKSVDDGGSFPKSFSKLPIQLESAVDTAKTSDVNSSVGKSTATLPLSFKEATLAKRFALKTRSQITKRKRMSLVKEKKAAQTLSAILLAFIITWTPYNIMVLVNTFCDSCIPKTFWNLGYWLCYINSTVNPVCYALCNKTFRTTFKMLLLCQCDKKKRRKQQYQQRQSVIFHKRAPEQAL
Adrenergic β1, sequence (P08588 whole entry): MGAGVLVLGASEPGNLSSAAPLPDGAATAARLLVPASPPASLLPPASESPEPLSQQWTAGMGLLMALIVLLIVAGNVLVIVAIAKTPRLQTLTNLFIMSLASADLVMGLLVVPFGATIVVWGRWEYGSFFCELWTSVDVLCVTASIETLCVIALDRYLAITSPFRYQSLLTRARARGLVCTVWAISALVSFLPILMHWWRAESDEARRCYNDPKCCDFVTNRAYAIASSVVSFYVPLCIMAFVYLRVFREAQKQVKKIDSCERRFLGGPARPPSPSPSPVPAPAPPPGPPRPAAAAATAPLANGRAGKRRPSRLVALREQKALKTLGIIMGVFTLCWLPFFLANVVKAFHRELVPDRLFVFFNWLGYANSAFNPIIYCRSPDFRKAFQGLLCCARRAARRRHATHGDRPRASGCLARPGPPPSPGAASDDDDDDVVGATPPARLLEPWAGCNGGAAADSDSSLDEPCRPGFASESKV
Adrenergic α2A, sequence (P08913 whole entry): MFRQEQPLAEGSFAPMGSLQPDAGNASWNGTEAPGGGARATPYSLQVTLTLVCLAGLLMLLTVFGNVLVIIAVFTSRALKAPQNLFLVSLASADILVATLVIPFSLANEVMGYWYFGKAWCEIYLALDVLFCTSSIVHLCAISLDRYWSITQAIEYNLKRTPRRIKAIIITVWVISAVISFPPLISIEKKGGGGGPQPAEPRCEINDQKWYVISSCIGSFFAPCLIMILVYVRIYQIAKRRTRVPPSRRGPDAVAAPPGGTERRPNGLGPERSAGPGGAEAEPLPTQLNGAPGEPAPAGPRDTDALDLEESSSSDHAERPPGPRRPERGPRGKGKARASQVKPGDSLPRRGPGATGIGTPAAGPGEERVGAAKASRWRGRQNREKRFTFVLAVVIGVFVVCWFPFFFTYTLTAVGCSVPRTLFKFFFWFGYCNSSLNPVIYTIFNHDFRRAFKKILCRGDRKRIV
Sigma σ1, sequence (Q99720 whole entry): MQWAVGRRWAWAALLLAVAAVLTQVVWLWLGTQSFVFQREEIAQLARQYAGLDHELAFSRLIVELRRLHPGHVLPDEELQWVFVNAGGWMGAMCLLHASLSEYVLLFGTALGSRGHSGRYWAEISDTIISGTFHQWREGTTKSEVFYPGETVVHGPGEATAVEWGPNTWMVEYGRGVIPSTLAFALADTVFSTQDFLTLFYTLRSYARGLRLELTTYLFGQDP
Adrenergic β2, sequence (P07550 whole entry): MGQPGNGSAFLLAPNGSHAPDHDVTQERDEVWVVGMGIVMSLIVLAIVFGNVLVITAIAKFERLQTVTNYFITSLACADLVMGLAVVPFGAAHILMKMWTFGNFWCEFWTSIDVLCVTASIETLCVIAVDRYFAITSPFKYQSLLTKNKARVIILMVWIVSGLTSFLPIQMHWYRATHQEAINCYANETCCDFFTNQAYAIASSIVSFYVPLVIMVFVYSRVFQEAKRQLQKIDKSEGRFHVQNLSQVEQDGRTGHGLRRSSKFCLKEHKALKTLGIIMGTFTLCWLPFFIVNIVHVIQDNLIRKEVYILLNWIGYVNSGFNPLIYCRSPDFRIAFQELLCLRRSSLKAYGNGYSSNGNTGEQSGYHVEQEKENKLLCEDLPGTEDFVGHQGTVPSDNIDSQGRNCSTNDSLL
Norepi. Transporter, sequence (P23975 whole entry): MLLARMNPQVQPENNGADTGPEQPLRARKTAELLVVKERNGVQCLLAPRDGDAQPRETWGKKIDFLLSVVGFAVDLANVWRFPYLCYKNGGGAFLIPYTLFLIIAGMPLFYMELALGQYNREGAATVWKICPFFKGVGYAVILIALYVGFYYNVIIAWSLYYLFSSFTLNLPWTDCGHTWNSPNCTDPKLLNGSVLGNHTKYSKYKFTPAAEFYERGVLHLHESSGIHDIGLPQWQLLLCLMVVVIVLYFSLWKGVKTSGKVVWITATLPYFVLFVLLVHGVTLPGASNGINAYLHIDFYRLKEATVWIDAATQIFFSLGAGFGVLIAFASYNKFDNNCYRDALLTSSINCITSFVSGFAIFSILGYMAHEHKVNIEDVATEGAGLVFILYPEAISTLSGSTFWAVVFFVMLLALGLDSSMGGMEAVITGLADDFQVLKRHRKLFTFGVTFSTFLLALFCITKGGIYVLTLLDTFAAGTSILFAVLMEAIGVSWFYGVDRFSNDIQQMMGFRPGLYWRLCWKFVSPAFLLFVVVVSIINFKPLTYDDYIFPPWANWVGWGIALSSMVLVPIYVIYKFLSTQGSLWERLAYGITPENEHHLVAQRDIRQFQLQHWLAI

In the case of `CC(Cc1ccccc1)NCCn1cnc2c1c(=O)n(C)c(=O)n2C` (stereo not shown) [fenethylline, Fenethylline], the “time spent in open arms after drug in control animals” value (Swiss Webster mice [1]) is reported as “reduced the time”, the “Inhib. (%)” value (GABAA – Site 1) is reported as 0% and the inhibition at 10 µM (Adenosine A1) is reported as 0%. The inhibition at 10 µM (Muscarinic M3) was 2%, the inhibition at 10 µM (Adrenergic β1) was 9% and the inhibition at 10 µM (Cannabinoid CB1) was 16%. The “Inhib. (%)” value (GABAA – Site 2) was 5%, the inhibition at 10 µM (Norepi. Transporter) was 10% and the inhibition at 10 µM (Nicotinic Ach α1) was 9%. For the same compound, the “onset of stimulant (hyperlocomotor) activity” value (Swiss Webster mice [2]; fenethylline 20 mg/kg vs amphetamine 2 mg/kg) was “more rapid than that of amphetamine alone”, the “locomotor activity after drug in control animals” value (Swiss Webster mice [2]; open field, control (KLH) animals) was “clear dose-dependent increase” and the “induction of conditioned place preference” value (Swiss Webster mice [3]) was “induce CPP”. The inhibition at 10 µM (Adrenergic β2) was 3%, the “Inhib. (%)” value (Adrenergic α1A) was 27% and the “binding across a suite of 31 CNS targets” value (suite of 31 CNS targets) was “little binding”. The inhibition at 10 µM (Adrenergic α2A) was 16%, the inhibition at 10 µM (Muscarinic M2) was -6% and the “Inhib. (%)” value (L-Type Ca Channel) was 6%. The “Inhib. (%)” value (Nicotinic Ach) was 2%, the “Inhib. (%)” value (Rolipram) was 9% and the inhibition at 10 µM (Prostanoid EP4) was 3%. The inhibition at 10 µM (Dopamine D2S) was 1%, the inhibition at 10 µM (AdenosineA2A) was -5% and the “Inhib. (%)” value (Glutamate – NMDA) was 10%. The inhibition at 10 µM (Sigma σ1) was 7%, the “Inhib. (%)” value (Phorbol Ester) was 9% and the “Inhib. (%)” value (Adrenergic α1B) was 16%. The “penetration of liberated amphetamine into brain tissue” value [4] was “lags behind that of directly administered amphetamine”.
